Measured values reported in patent US10350210B2, “EGFR and ALK dual inhibitor” (PRECEDO PHARMACEUTICALS CO., LTD, priority 2015, dated 2019).

How the values were obtained:
Type in all cases: cell-based
NCI-H1975 = assay: Growth of cancer cells (Cell Titer-Glo viability), NCI-H1975; settings: Homo sapiens; NCI-H1975 (EGFR L858R/T790M double mutant), 72 hrs
Method in brief: (§1)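 Cells are counted as viable by CellTiter-Glo chemiluminescence. Murine BaF3 lines depend on a stably transfected TEL-fused kinase after IL-3 withdrawal, and the NSCLC lines express mutant EGFR.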

PC-9 = assay: Growth of cancer cells (Cell Titer-Glo viability), PC-9; settings: Homo sapiens; PC-9 (EGFR delE746_A750 mutant), 72 hrs
Method in brief: as §1

A549 = assay: Growth of cancer cells (Cell Titer-Glo viability), A549; settings: Homo sapiens; A549 (wild-type EGFR), 72 hrs
HCC827 = assay: Growth of cancer cells (Cell Titer-Glo viability), HCC827; settings: Homo sapiens; HCC827 (mutant EGFR del19), 72 hrs
Method in brief: (§2)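 BaF3, TEL-kinase fusion, IL-3-free, transgene-driven growth; HCC827 = EGFR del19, NCI-H3255 = EGFR L858R. Viable cells via CellTiter-Glo, plate-reader luminescence.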

NCI-H3122 = assay: Growth of cancer cells (Cell Titer-Glo viability), NCI-H3122; settings: Homo sapiens; NCI-H3122 (expressing ALK gene), 72 hrs; read-out: GI50
BaF3 = assay: Cell growth (Cell Titer-Glo viability), BaF3; settings: BaF3 mouse primary B cell, 72 hrs
BaF3-TEL-ALK = assay: Cell growth (Cell Titer-Glo viability), BaF3-TEL-ALK; settings: Mus musculus; BaF3-TEL-ALK (stably expressing ALK kinase), 72 hrs
Method in brief: as §2

BaF3-TEL-EGFR-T790M = assay: Cell growth (Cell Titer-Glo viability), BaF3-TEL-EGFR-T790M; settings: Mus musculus; BaF3-TEL-EGFR-T790M (EGFR T790M mutant kinase), 72 hrs
Method in brief: as §2

BaF3-TEL-INSR = assay: Cell growth (Cell Titer-Glo viability), BaF3-TEL-INSR; settings: Mus musculus; BaF3-TEL-INSR (stably expressing INSR protein), 72 hrs
From the text: (§3) By testing the effect of the novel kinase inhibitors on the proliferation of cancer cells, the selectivity of the compounds of the present disclosure in inhibiting the proliferation of cancer cells was further assessed. In this example, human non-small cell lung cancer cell NCI-H1975 (expressing EGFR L858R/T790M double mutant gene), human skin squamous carcinoma cell A431 (expressing wild-type EGFR gene), non-small cell lung cancer NCI-H3255 (expressing EGFR L858R mutant gene), non-small cell lung cancer cell NCI-H3122 (expressing ALK gene), human non-small cell lung cancer cell A549 (expressing wild-type EGFR gene), human non-small cell lung cancer cell NCI-H2122 (expressing wild-type EGFR gene), human non-small cell lung cancer cell NCI-H460 (expressing wild-type EGFR gene), human non-small cell lung cancer cell PC-9 (expressing EGFR delE746_A750 mutant gene), Chinese hamster ovary cell CHO (Cricetulus griseus, hamster, Chinese, ovary), Chinese hamster lung cell CHL, human non-small cell lung cancer cell HCC827 (expressing mutant EGFR del19 gene), human lung adenocarcinoma cell HCC4006 (expressing mutant EGFR del19 gene), human non-small cell lung cancer cell NCI-H2228 (expressing wild-type ALK gene), and mouse primary B cell BaF3 were used, and the above cells were all purchased from ATCC (US). In addition, mouse BaF3-TEL-ALK (stably expressing ALK kinase), mouse BaF3-ALK-F1174L (stably expressing mutant ALK F1174L kinase), mouse BaF3-NPM-ALK (stably expressing ALK kinase), mouse BaF3-TEL-EGFR (stably expressing EGFR kinase), mouse BaF3-TEL-EGFR-T790M (stably expressing EGFR T790M mutant kinase), mouse BaF3-FL-EGFR-Del19 (stably expressing EGFR delE746_A750 mutant kinase), mouse BaF3-TEL-EGFR-L858R (stably expressing EGFR L858R mutant kinase), mouse BaF3-FL-EGFR-T790M-L858R (stably expressing EGFR T790M/L858R mutant kinase), mouse BaF3-TEL-INSR (stably expressing INSR protein), mouse BaF3-TEL-IGF1R (stably expressing IGF1R Protein), mouse BaF3-EML4-ALK (stably expressing EML4-ALK Protein), mouse BaF3-TEL-JAK3 (stably expressing JAK3 kinase protein), mouse BaF3-TEL-CSF1R (stably expressing CSF1R protein), and mouse BaF3-TEL-ALK-F1196M (stably expressing ALK F1196M mutant kinase) were also used in this example. The above cell lines were all established by our laboratory via the following process: kinase proteins or protein domain sequences of human ALK, ALK F1174L, EGFR, EGFR T790M, EGFR delE746_A750, EGFR L858, EGFR T790M/L858R, INSR, IGF1R, EML4-ALK, JAK3, CSF1R, ALK F1196M were amplified respectively by PCR, and were respectively inserted into MSCV-Puro vector (Clontech) with N-terminal TEL fragments and/or NPM fragments and/or TPR fragments; the resultants were stably transfected into mouse BaF3 cells by the means of retrovirus, and the IL-3 growth factors were removed, and eventually the ALK, ALK F1174L, EGFR, EGFR T790M, EGFR delE746_A750, EGFR L858, EGFR T790M/L858R, INSR, IGF1R, EML4-ALK, JAK3, CSF1R, ALK F1196M-transferred protein dependent cell lines were obtained.
(§4) The number of viable cells was determined quantitatively by a microplate reader using Cell Titer-Glo® (Promega, US) chemiluminescence cell viability assay kit.

BaF3-TEL-IGF1R = assay: Cell growth (Cell Titer-Glo viability), BaF3-TEL-IGF1R; settings: Mus musculus; BaF3-TEL-IGF1R (stably expressing IGF1R protein), 72 hrs
From the text: as §3, with “The above cell lines were all established by our laboratory via the following process: kinase proteins or protein domain sequences of human ALK, ALK F1174L, EGFR, EGFR T790M, EGFR delE746_A750, EGFR L858, EGFR T790M/L858R, INSR, IGF1R, EML4-ALK, JAK3, CSF1R, ALK F1196M were amplified respectively by PCR, and were respectively inserted into MSCV-Puro vector (Clontech) with N-terminal TEL fragments and/or NPM fragments and/or TPR fragments; the resultants were stably transfected into mouse BaF3 cells by the means of retrovirus, and the IL-3 growth factors were removed, and eventually the ALK, ALK F1174L, EGFR, EGFR T790M, EGFR delE746_A750, EGFR L858, EGFR T790M/L858R, INSR, IGF1R, EML4-ALK, JAK3, CSF1R, ALK F1196M-transferred protein dependent cell lines were obtained.” left out
as §4

BaF3-EML4-ALK = assay: Cell growth (Cell Titer-Glo viability), BaF3-EML4-ALK; settings: Mus musculus, Ba/F3 EML4-ALK; BaF3-EML4-ALK (stably expressing EML4-ALK protein), 72 hrs
From the text: as §3, §4

BaF3-TEL-JAK3 = assay: Cell growth (Cell Titer-Glo viability), BaF3-TEL-JAK3; settings: Mus musculus; BaF3-TEL-JAK3 (stably expressing JAK3 kinase protein), 72 hrs
From the text: as §3, §4

BaF3-TEL-CSF1R = assay: Cell growth (Cell Titer-Glo viability), BaF3-TEL-CSF1R; settings: Mus musculus; BaF3-TEL-CSF1R (stably expressing CSF1R protein), 72 hrs
From the text: as §3, with “The above cell lines were all established by our laboratory via the following process: kinase proteins or protein domain sequences of human ALK, ALK F1174L, EGFR, EGFR T790M, EGFR delE746_A750, EGFR L858, EGFR T790M/L858R, INSR, IGF1R, EML4-ALK, JAK3, CSF1R, ALK F1196M were amplified respectively by PCR, and were respectively inserted into MSCV-Puro vector (Clontech) with N-terminal TEL fragments and/or NPM fragments and/or TPR fragments; the resultants were stably transfected into mouse BaF3 cells by the means of retrovirus, and the IL-3 growth factors were removed, and eventually the ALK, ALK F1174L, EGFR, EGFR T790M, EGFR delE746_A750, EGFR L858, EGFR T790M/L858R, INSR, IGF1R, EML4-ALK, JAK3, CSF1R, ALK F1196M-transferred protein dependent cell lines were obtained.” left out
as §4

| SMILES | GI50 (NCI-H1975) [nM] | GI50 (PC-9) [nM] | GI50 (A549) [nM] | GI50 (HCC827) [nM] | GI50 (NCI-H3122) [nM] | GI50 (BaF3) [nM] | GI50 (BaF3-TEL-ALK) [nM] | GI50 (BaF3-TEL-EGFR-T790M) [nM] | GI50 (BaF3-TEL-INSR) [nM] | GI50 (BaF3-TEL-IGF1R) [nM] | GI50 (BaF3-EML4-ALK) [nM] | GI50 (BaF3-TEL-JAK3) [nM] | GI50 (BaF3-TEL-CSF1R) [nM] |
| --- | --- | --- | --- | --- | --- | --- | --- | --- | --- | --- | --- | --- | --- |
| C=CC(=O)Nc1cc(Nc2ncc(Cl)c(Nc3ccccc3C(=O)NC)n2)c(OC)cc1N1CCN(C)CC1 [Compound 64, 2-(2-(5-acrylamido-2-methoxy-4-(4-methylpiperazin-1-yl)phenylamino)-5-chloropyrimidin-4-ylamino)-N-methylbenzamide] | 50 | 7.2 | 370 | 13 | 4.4 | 2900 | 10 | 28 | 2.3 | 14 | 13 | 59 | – |
| C=CC(=O)Nc1cc(Nc2ncc(Cl)c(Nc3ccccc3C(=O)NC)n2)c(OC)cc1N1CCN(CC)CC1 [Compound 65] | 5.1 | 4.2 | 220 | 13 | 3.5 | 2100 | 3.1 | 30 | < 0.3 | 2 | 8.6 | 45 | – |
| C=CC(=O)Nc1cc(Nc2ncc(Cl)c(Nc3ccccc3C(=O)NC)n2)c(OC)cc1N1CCN(C(C)C)CC1 [Compound 69, 2-(2-(5-acrylamido-4-(4-isopropylpiperazin-1-yl)-2-methoxyphenylamino)-5-chloropyrimidin-4-ylamino)-N-methylbenzamide] | 79 | 15 | – | 62 | 4.5 | 1100 | – | – | 49 | – | 1.4 | 37 | 100 |

More lines, in order of falling GI50 (NCI-H1975), values ahead:

| GI50 (NCI-H1975) [nM] | GI50 (PC-9) [nM] | GI50 (A549) [nM] | GI50 (HCC827) [nM] | GI50 (NCI-H3122) [nM] | GI50 (BaF3) [nM] | GI50 (BaF3-TEL-ALK) [nM] | GI50 (BaF3-TEL-EGFR-T790M) [nM] | GI50 (BaF3-TEL-INSR) [nM] | GI50 (BaF3-TEL-IGF1R) [nM] | GI50 (BaF3-EML4-ALK) [nM] | GI50 (BaF3-TEL-JAK3) [nM] | GI50 (BaF3-TEL-CSF1R) [nM] | SMILES |
| --- | --- | --- | --- | --- | --- | --- | --- | --- | --- | --- | --- | --- | --- |
| 250 | 97 | 1700 | 83 | 12 | 5700 | 120 | 250 | 14 | 41 | 160 | 270 | – | C=CC(=O)Nc1cc(Nc2ncc(Cl)c(Nc3ccccc3C(=O)NC)n2)c(OC)cc1N1CCN(C(C)=O)CC1 [Compound 68, 2-(2-(4-(4-ethanoylpiperazin-1-yl)-5-acrylamido-2-methoxyphenylamino)-5-chloropyrimidin-4-ylamino)-N-methylbenzamide] |
| 14 | 9.6 | 450 | 14 | 4.4 | 5400 | 13 | 28 | 1.8 | 7.7 | 35 | 110 | – | C=CC(=O)Nc1cc(Nc2ncc(Cl)c(Nc3ccccc3C(=O)NC)n2)c(OC)cc1N1CCC(N2CCOCC2)CC1 [Compound 67, 2-(2-(5-acrylamido-2-methoxy-4-(4-morpholinylpiperidin-1-yl)phenylamino)-5-chloropyrimidin-4-ylamino)-N-methylbenzamide] |
